Series [1] in a line: refractive index (Na D-line) (dimensionless). The following applies: 298.15 K; 101.33 kPa; Liquid; Standard Abbe refractometry.
For series [2] the following is noted: 298.15 K, 101.33 kPa, Liquid.

Numbers after ± are expanded uncertainties.

Usually refractive index stands for the speed of light in vacuum divided by its phase velocity in the sample. One may read the viscosity as the internal friction of a fluid under shear. The term mass density denotes mass per unit of volume. With `C[C@H](N)C(=O)[O-].C[N+](C)(C)CCO` [2-hydroxy-N,N,N-trimethylethanaminium L-alaninate], the refractive index in series [1] came out at 1.4868 ± 0.0006. Further, the viscosity in series [2] (Falling or rolling sphere viscometry) was found to be 715 ± 70 mPa·s. Besides, the mass density in series [2] (Vibrating tube method) worked out at 1122.56 ± 1.1 kg/m3.
